{"source": "patent US20110212908A1", "about": "“TOPICAL COMPOSITIONS AND THE USE THEREOF” (priority 2005, published 2011)"}
{"system": "Pseudomonas", "assay": "Inhibition of adhesion of Pseudomonas strains P1, P2, P3 on canine corneocytes", "type": "cell-based", "settings": "monosaccharides at 0.05% and 0.1% in PBS, vs positive control without monosaccharides (100%)", "experimental": "A study comparing the inhibition, by monosaccharides, of the adhesion of three different strains of Pseudomonas, P1, P2, P3, was conducted on canine corneocytes. The three monosaccharides studied are respectively D-galactose, D-mannose and L-rhamnose.\nThe three strains of Psedomonas were taken from dogs with infectious otitis. Corneocytes were taken from six different healthy dogs using D-squame™-brand adhesive pads, sold by the CuDerm™ Company.\nBacterial suspensions were produced, each containing one of the three strains P1, P2 or P3, and PBS (phosphate-buffered saline) with or without monosaccharides at two concentrations (0.05% and 0.1%). These suspensions were each placed on a corneocyte layer. These layers were then incubated in a humidity chamber. After incubation, the corneocytes were washed and stained. The adherent Pseudomonas were then quantified by computer-assisted image analysis.\nThe percentage of adherence of the strains in the presence of monosaccharides was then calculated with respect to the percentage of adherence of the strains without monosaccharides (positive control).\nThe adherence percentages were compared for the three strains P1 to P3 with respect to the positive control (100%).", "units": {"mean inhibition percentage for the three Pseudomonas strains": "%"}}
{"smiles": "C[C@H](O)[C@H](O)[C@@H](O)[C@@H](O)C=O", "note": "[L-rhamnose]", "mean inhibition percentage for the three Pseudomonas strains": 30.8}
{"smiles": "O=C[C@H](O)[C@@H](O)[C@@H](O)[C@H](O)CO", "note": "[D-galactose]", "mean inhibition percentage for the three Pseudomonas strains": 25.6}
{"smiles": "O=C[C@@H](O)[C@@H](O)[C@H](O)[C@H](O)CO", "note": "[D-mannose]", "mean inhibition percentage for the three Pseudomonas strains": 19.4}
